The source of these data is patent US11730705B2, “Small molecule CMKLR1 antagonists in inflammatory disease” (The Board of Trustees of the Leland Stanford Junior …, priority 2019, dated 2023).

Experiment [1] deals with T1, CMKLR1 (Homo sapiens, UniProt Q99788).
T1 construct: host or cells: CHO-K1 (PathHunter)
T1 sequence (Q99788 1-373): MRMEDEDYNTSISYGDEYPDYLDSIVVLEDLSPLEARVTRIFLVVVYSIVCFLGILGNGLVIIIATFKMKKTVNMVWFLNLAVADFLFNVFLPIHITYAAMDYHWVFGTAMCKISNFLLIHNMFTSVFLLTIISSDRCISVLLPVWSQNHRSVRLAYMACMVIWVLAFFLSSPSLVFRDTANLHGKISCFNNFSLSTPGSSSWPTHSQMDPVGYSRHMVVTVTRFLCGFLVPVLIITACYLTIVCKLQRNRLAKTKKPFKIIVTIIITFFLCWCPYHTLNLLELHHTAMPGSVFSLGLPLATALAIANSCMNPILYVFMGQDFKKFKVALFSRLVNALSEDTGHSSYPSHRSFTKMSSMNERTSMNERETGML
As to the kind of experiment: β-arrestin recruitment assay (chemerin-mediated β-arrestin2 association with CMKLR1). Type of experiment: cell-based. The method, then: (§1) FIG. 15A-15D. […] IC50 values were determined based on 6-point dose-response curves for each compound. (FIG. 15A) α-NETA. […] (FIG. 15A-15C) mean±SEM, n=3-18 independent experiments. […] 0.2 ml each compound (in 10% captisol) or vehicle control was administered by oral gavage beginning one day prior to psoriasis induction. Back skin thickness was measured daily and normalized to day 0. mean±SEM, n=10 mice for vehicle and α-NETA groups pooled from two independent trials; n=3 mice for (27) and (6) from one trial.
Cell culture. […] DiscoverX PathHunter® CHO-K1 CMKLR1 β-Arrestin Cells were grown in RPMI lacking phenol red (Gibco, Life Technologies), supplemented with L-glutamine, penicillin-streptomycin, sodium pyruvate, non-essential amino acid, BCS, hygromycin, and G418-sulfate.
β-arrestin recruitment assay. CMKLR1-CHO-β-Arrestin cells were seeded in 96 well plates at 1×10^5 cell/ml-100 ul/well and incubated overnight at 37° C., 5% CO2. The next day, media was removed and cells were pre-incubated in PBS with α-NETA or test compound (95 ul/well) in a 6 point dose response curve from 100 μM to 0.3 μM for 10 min at RT. (α-NETA and test compounds were reconstituted in DMSO; final DMSO concentration in each well was 0.1%). After 10 min, 5 ul of recombinant human chemerin (R&D Systems) at a final concentration of 20 nM was added to each well. Plates were incubated for 90 min at 37° C., 5% CO2. Media was then removed and 50 ul of chemiluminescent substrate (Tropix Gal-Screen, Applied Biosciences) was added. The plate was incubated for 1 hr at RT and luminescence was detected using the SpectraMax M5 plate reader (Molecular Devices). For each independent trial (single replicate dose curves), data was normalized to the maximum signal per compound tested and an IC50 value was generated using GraphPad Prism software. The average IC50 value for n independent trials (as specified in the table) is reported.

The target in experiment [2] is T2, (hu)CMKLR1 L1.2 cells (Homo sapiens, UniProt Q99788).
T2 construct: expressed in transfected cells; host or cells: L1.2 pre-B cell lymphoma cells
T2 sequence (Q99788 1-373): T1 sequence (Q99788 1-373)
Description: Chemotaxis assay (chemerin-dependent CMKLR1+ cell migration). As to conditions: for IC50: Table 3, migration toward huChemerin, 2 h transwell, read-out: Chemotaxis IC50 μM mean ± SEM (n). Type of experiment: cell-based. The method, then:
Cell culture. (hu)CMKLR1 transfectants (generated in L1.2 pre-B cell lymphoma cells) were grown in RPMI 1640 (Corning) supplemented with L-glutamine, penicillin-streptomycin, and 10% BCS and G418-sulfate (KSE Scientific). DiscoverX PathHunter® CHO-K1 CMKLR1 β-Arrestin Cells were grown in RPMI lacking phenol red (Gibco, Life Technologies), supplemented with L-glutamine, penicillin-streptomycin, sodium pyruvate, non-essential amino acid, BCS, hygromycin, and G418-sulfate.
Chemotaxis assay. (hu)CMKLR1 L1.2 cells at 1×10^6 cell/ml were treated with 5 mM sodium butyrate (Sigma) overnight to induce hCMKLR1 expression. The next day, cells were washed in migration media (RPMI+0.5% BSA) and resuspended at 1.5-3×10^6 cell/ml. Cells were pre-incubated at RT for 10 min with various concentrations of α-NETA or test compounds (α-NETA and test compounds were reconstituted in DMSO; final DMSO concentration in each well was 0.1%). 100 ul of cells were added to the upper chamber of a 24-well transwell plate (5 um pore size, Costar). Cells were allowed to migrate toward huChemerin ([…] in migration media, bottom chamber) for 2 h, 37° C., 5% CO2. The number of migrated cells was quantified by flow cytometry (BD LSR2), and live cells were distinguished based on FSC×SSC properties. The background for this assay was typically low with 0 cells migrating to the buffer alone. For each independent trial, data was normalized to the maximum migration per compound tested and an IC50 value was generated using GraphPad Prism software. The average IC50 value for n independent trials (as specified in the table) is reported.

The subject of experiment [3] is IMQ-induced psoriasis in mice. Description: IMQ-induced psoriasis model. Type of experiment: in vivo, mouse. As to conditions: for clinical features of experimental psoriasis: oral gavage in 10% captisol, FIG. 15D. The method, then:
FIG. 11A-11G. […] Representative images of the same mouse shown over time. […] Mice were treated twice daily with IMQ±dexamethasone (DEX, 200 ug/mouse) 1 h prior to IMQ treatment. […] (FIG. 11G) NK cell (CD45+DX5+CD11b-CD3-CD19-) infiltration into lesional or non-lesional adjacent skin was determined by flow cytometry (6 day timepoint) for IMQ-treated WT and chemerin KO mice. mean±SEM, n=4 mice per genotype, ***p<0.005 by 2-tailed t-test; **p<0.01 by 2-tailed t-test; *p<0.05 by 1-tailed t-test.
FIG. 13A-13D. […] Fold change with respect to day 0 measurements are shown. […] For A-C, n=3 untreated, n=5 IMQ-treated mice of each genotype, mean±SEM, *p<0.05 by 2-tailed t-test.
as §1

Experiment [4] concerns EAE in C57BL/6 mice. Description: EAE induced by MOG35-55/CFA immunization. As to conditions: Table 4, 10 mg/kg daily to D 21, n = 8; for Maximum Score (Mean ± SEM): clinical score 0-5; for AUC (Mean ± SEM): mean clinical score × day. Type of experiment: in vivo, mouse. The procedure:
FIG. 1A-1D. […] (FIG. 1D) The integrated clinical score over time for each animal was calculated as area under the curve (AUC).
EAE. […] CFA consisted of 5 mg/ml mTB (Mycobacterium-tuberculosis H37 Ra, BD Difco) in IFA (Incomplete Freund's Adjuvant, Sigma). MOG35-55 was reconstituted at 2 mg/ml in PBS. Mice also received 200 ng pertussis toxin (List Biological Laboratories, Inc) by i.p. injection at the time of immunization and two days later. […] For a direct comparison to α-NETA, the DMF and compound doses were also 10 mg/kg in 10% captisol. Mice were monitored daily for clinical disease and scored (0=normal/healthy, 1=limp tail, 2=hindlimb weakness, 3=hindlimb paralysis, 4=hindlimb and forelimb paralysis, 5=moribund/dead).

The mark [5] stands for this setting: Table 2, tertiary amines, chemerin 20 nM, CHO transfectants, read-out: β-arrestin IC50 μM mean ± SEM (n).
Setting [6] is: Table 3, quaternary ammonium salts, chemerin 20 nM, CHO transfectants, read-out: β-arrestin IC50 μM mean ± SEM (n).
[7] abbreviates: values given in running text b220, read-out: β-arrestin2 assay IC50.

Read-outs that look alike come from different tables or passages of the source.

For the compound `CN(C)CCC(=O)c1cccc2ccccc12` [Compound 3], the IC50 in experiment [1] (setting [5]) was 18.8 µM.

As to `COc1ccc(C(=O)CC[N+](C)(C)C)cc1` [Compound 27], the “activity in β-arrestin2 assay” value in experiment [1] was “highly active”. Besides, the IC50 in experiment [1] (setting [6]) worked out at 1.9 ± 0.2 µM. In addition, in experiment [2], the “activity in chemotaxis assay” value is listed as “highly active” and the 50% inhibitory concentration (IC50) worked out at 4.5 ± 1.5 µM. Moreover, in experiment [3], the “clinical features of experimental psoriasis” value is reported as “suppressed”. Besides, in experiment [4], the “Maximum Score (Mean ± SEM)” value is recorded as 2.1 ± 0.1¶, the “AUC (Mean ± SEM)” value was 24.3 ± 4.2 and the “Day of onset (Mean ± SEM)” value is 16.0 ± 0.9.

On to `CCN(C)CCC(=O)c1ccc2ccccc2c1` [Compound 9], for which, in experiment [1] (setting [5]), the IC50 came to 39.6 µM.

With `COc1ccccc1C(=O)CC[N+](C)(C)C` [Compound 26], the “activity in β-arrestin2 assay” value in experiment [1] was “highly active”. Moreover, in experiment [1] (setting [6]), the IC50 amounted to 2.9 ± 1.6 µM. Also, in experiment [2], the “activity in chemotaxis assay” value was “highly active” and the half-inhibitory concentration (IC50) came out at 7.2 µM.

With `C[C@@H]1C[C@H]2[C@@H]3CCC4=CC(=O)C=C[C@]4(C)[C@@]3(F)[C@@H](O)C[C@]2(C)[C@@]1(O)C(=O)CO` [dexamethasone, reference compound], the “percent inhibition of skin thickening” value in experiment [3] (day 5 post-IMQ, 200 ug/mouse 1 h prior to IMQ) was 62±6%.

On to `COc1ccccc1C(=O)CCN(C)C` [Compound 16], for which the IC50 in experiment [1] (setting [5]) was above 100 µM.

Take `CCN(CC)CCC(=O)c1cccc2ccccc12` [Compound 5]: the half-maximal inhibitory concentration (IC50) in experiment [1] (setting [5]) is 8.9 ± 2.4 µM.

For the compound `COc1ccc2ccccc2c1C(=O)CC[N+](C)(C)C` [Compound 33], the IC50 in experiment [1] (setting [6]) stood at 0.6 ± 0.3 µM; in experiment [2] it was 10.7 µM.

`COc1ccc(C(=O)CC[N+](C)(C)C)c(OC)c1` [Compound 29]: the IC50 in experiment [1] (setting [6]) was determined as 4.8 ± 1.6 µM; in experiment [2], 17.4 ± 2.2 µM.

In the case of `COc1cccc(OC)c1C(=O)CC[N+](C)(C)C.[I-]` [Compound 30], the “activity in β-arrestin2 assay” value in experiment [1] is reported as “highly active”. Moreover, the IC50 in experiment [1] (setting [6]) was found to be 2.1 ± 1.1 µM. Also, in experiment [2], the “activity in chemotaxis assay” value is recorded as “highly active” and the concentration for half-maximal inhibition (IC50) amounted to 6.8 µM.

Turning to `C[N+](C)(C)CCS(=O)(=O)c1ccccc1.[I-]` [Compound 35], in experiment [1], the “activity in β-arrestin2 assay” value was “inactive”.

As for `COc1cccc(OC)c1C(=O)CCN(C)C` [Compound 19], the IC50 in experiment [1] (setting [5]) turned out to be 10.3 ± 4.5 µM.

Consider `COc1ccc2cc(C(=O)CC[N+](C)(C)C)ccc2c1` [Compound 32], for which the IC50 in experiment [1] (setting [6]) stood at 1.5 ± 0.3 µM; in experiment [2], 20 ± 6.2 µM.

On to `C[N+](C)(C)CCC(=O)C1CCCCC1` [Compound 25], for which the IC50 in experiment [1] (setting [7]) was 11.9 µM; in experiment [2], above 100 µM.

Take `C[N+](C)(C)CCC(=O)c1ccc2ccccc2c1` [Compound 23]: the results for the IC50 in experiment [1] (setting [6]), in experiment [1] (setting [7]) and in experiment [2] were 2.5 ± 0.9 µM, 3.1 µM and 24.1 µM, respectively.

As for `CN(C)CCC(=O)c1ccccc1` [Compound 12], in experiment [1] (setting [5]), the IC50 is above 100 µM.

As for `COc1ccc(C(=O)CCN(C)C)cc1` [Compound 17], in experiment [1] (setting [5]), the half-inhibitory concentration (IC50) was above 100 µM.

In the case of `CCN(CC)CCC(=O)c1ccccc1` [Compound 14], the IC50 in experiment [1] (setting [5]) is 77.8 µM.

For the compound `CCN(C)CCC(=O)c1ccccc1` [Compound 13], in experiment [1] (setting [5]), the IC50 is 16.8 ± 8.3 µM.

With `COc1ccc2ccccc2c1C(=O)CCN(C)C` [Compound 6], the half-maximal inhibitory concentration (IC50) in experiment [1] (setting [5]) is 6.2 ± 2.5 µM. The “clinical features of experimental psoriasis” value in experiment [3] is reported as “suppressed”. Moreover, in experiment [4], the “Maximum Score (Mean ± SEM)” value turned out to be 2.4 ± 0.2, the “AUC (Mean ± SEM)” value is recorded as 25.2 ± 4.0 and the “Day of onset (Mean ± SEM)” value is listed as 14.5 ± 0.4.

Turning to `CCN(CC)CCC(=O)c1ccc2ccccc2c1` [Compound 8], the concentration for half-maximal inhibition (IC50) in experiment [1] (setting [5]) was 71.3 µM.

Regarding `COc1cccc(C(=O)CC[N+](C)(C)C)c1` [Compound 28], the figures for the IC50 in experiment [1] (setting [6]) and in experiment [2] were 3.8 ± 1.7 µM and 14.6 ± 4.8 µM, respectively.

As for `CCN(C)CCC(=O)c1cccc2ccccc12` [Compound 4], the IC50 in experiment [1] (setting [5]) came out at 17.9 µM.

Take `C[N+](C)(C)CCC(=O)c1ccccc1` [Compound 24]: in experiment [1], the “activity in β-arrestin2 assay” value was “showed activity”. The values for the IC50 in experiment [1] (setting [6]), in experiment [1] (setting [7]) and in experiment [2] were 5.6 ± 0.7 µM, 4.3 µM and above 100 µM, respectively. Also, the “activity in chemotaxis assay” value in experiment [2] is “did not show any activity”.

Regarding `COc1cccc(C(=O)CCN(C)C)c1` [Compound 18], the IC50 in experiment [1] (setting [5]) is 64 µM.

As for `COc1ccc2cc(C(=O)CCN(C)C)ccc2c1` [Compound 11], the IC50 in experiment [1] (setting [5]) was above 100 µM.

Consider `COc1cc(OC)cc(C(=O)CC[N+](C)(C)C)c1` [Compound 31], for which the IC50 in experiment [1] (setting [6]) is 6 ± 2.2 µM; in experiment [2], above 100 µM.

For the compound `CN(C)CCC(=O)C1CCCCC1` [Compound 20], the “activity in β-arrestin2 assay” value in experiment [1] was “complete loss of activity”. Further, the IC50 in experiment [1] (setting [5]) was above 100 µM.

As to `CCCCN(C)CCC(=O)c1ccc2ccccc2c1` [Compound 10], the IC50 in experiment [1] (setting [5]) stood at 44.5 µM.

Take `CCCCN(C)CCC(=O)c1ccccc1` [Compound 15]: the IC50 in experiment [1] (setting [5]) was above 100 µM.

Turning to `CN(C)CCC(=O)c1ccc2ccccc2c1` [Compound 7], the IC50 in experiment [1] (setting [5]) worked out at 18.5 µM.
